Results reported in US9346815B2, “5-chloro-2-difluoromethoxyphenyl pyrazolopyrimidine compounds, compositions and methods of use thereof” (Genentech, Inc., priority 2014, dated 2016).

Assays:
[1] = tested on: JAK1-dependent STAT6 phosphorylation downstream of IL-13 stimulation in BEAS-2B human bronchial epithelial cells; assay: JAK1 pathway assay in BEAS-2B cells (IL-13-pSTAT6, MSD); assay type: cell-based; details: read-out: IL13-pSTAT6 EC50 (uM)_BEAS-2B
Method in brief: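 Inhibitors were added to TF-1 cells (GM-CSF-starved, serum-free) for 30 min or to BEAS-2B cells (complete medium) for 1 hr at 37° C. MSD detected pSTAT6.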

[2] = target: isolated recombinant JAK1 kinase domain (Homo sapiens (Human), UniProt P23458); assay: JAK1 enzyme assay (Caliper LabChip, peptide phosphorylation); assay type: biochemical; details: isolated recombinant JAK1 kinase domain, 25 μM ATP
[3] = target: isolated recombinant JAK2 kinase domain (Homo sapiens (Human), UniProt O60674); assay: JAK2 enzyme assay (Caliper LabChip, peptide phosphorylation); assay type: biochemical; details: 25 μM ATP
Chain of isolated recombinant JAK2 kinase domain (O60674 849-1124): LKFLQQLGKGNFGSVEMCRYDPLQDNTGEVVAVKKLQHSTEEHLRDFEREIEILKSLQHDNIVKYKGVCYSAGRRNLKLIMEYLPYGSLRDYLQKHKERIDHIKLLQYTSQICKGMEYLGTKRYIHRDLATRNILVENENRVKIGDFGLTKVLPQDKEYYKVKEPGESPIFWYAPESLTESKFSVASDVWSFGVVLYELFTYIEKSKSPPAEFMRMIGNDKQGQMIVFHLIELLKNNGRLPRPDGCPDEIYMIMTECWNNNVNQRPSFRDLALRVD

Chain of isolated recombinant JAK1 kinase domain (P23458 875-1153): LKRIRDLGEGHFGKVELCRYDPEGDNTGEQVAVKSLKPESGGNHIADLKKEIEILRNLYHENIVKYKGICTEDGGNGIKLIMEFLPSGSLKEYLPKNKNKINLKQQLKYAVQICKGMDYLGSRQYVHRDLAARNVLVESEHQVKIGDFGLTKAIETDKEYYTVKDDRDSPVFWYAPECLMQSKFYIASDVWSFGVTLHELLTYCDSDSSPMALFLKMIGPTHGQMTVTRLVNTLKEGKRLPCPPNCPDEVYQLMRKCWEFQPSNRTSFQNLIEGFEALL

Row | SMILES | Ki [2] [nM] | Ki [3] [nM] | EC50 [1] [µM]
1 | CN(C)C(=O)CN1CCC(CN2CCN(C(=O)Cn3cc(NC(=O)c4cnn5cccnc45)c(-c4cc(Cl)ccc4OC(F)F)n3)CC2)CC1 [Example 428, N-(3-(5-chloro-2-(difluoromethoxy)phenyl)-1-(2-(4-((1-(2-(dimethylamino)-2-oxoethyl)piperidin-4-yl)methyl)piperazin-1-yl)-2-oxoethyl)-1H-pyrazol-4-yl)pyrazolo[1,5-a]pyrimidine-3-carboxamide] | 0.79 | 2.51 | 0.0453
2 | CN1CCC2CN(C(=O)Cn3cc(NC(=O)c4cnn5cccnc45)c(-c4cc(Cl)ccc4OC(F)F)n3)CC21 (stereo not drawn) [Example 430, N-(3-(5-chloro-2-(difluoromethoxy)phenyl)-1-(2-(1-methyl-hexahydropyrrolo[3,4-b]pyrrol-5(1H)-yl)-2-oxoethyl)-1H-pyrazol-4-yl)pyrazolo[1,5-a]pyrimidine-3-carboxamide] | 0.51 | 0.77 | 0.0058
3 | CN(CC1OCCO1)C1CCN(C(=O)Cn2cc(NC(=O)c3cnn4cccnc34)c(-c3cc(Cl)ccc3OC(F)F)n2)CC1 [Example 433, N-(1-(2-(4-(((1,3-dioxolan-2-yl)methyl)(methyl)amino)piperidin-1-yl)-2-oxoethyl)-3-(5-chloro-2-(difluoromethoxy)phenyl)-1H-pyrazol-4-yl)pyrazolo[1,5-a]pyrimidine-3-carboxamide] | 0.42 | 1.16 | 0.036
4 | CN(CC1(CC#N)CC1)C1CCN(C(=O)Cn2cc(NC(=O)c3cnn4cccnc34)c(-c3cc(Cl)ccc3OC(F)F)n2)CC1 [Example 435, N-(3-(5-chloro-2-(difluoromethoxy)phenyl)-1-(2-(4-(((1-(cyanomethyl)cyclopropyl)methyl)(methyl)amino)piperidin-1-yl)-2-oxoethyl)-1H-pyrazol-4-yl)pyrazolo[1,5-a]pyrimidine-3-carboxamide] | 0.34 | 0.98 | 0.0074
5 | N#CC1(NC2CCN(C(=O)Cn3cc(NC(=O)c4cnn5cccnc45)c(-c4cc(Cl)ccc4OC(F)F)n3)CC2)CC1 [Example 436, N-(3-(5-chloro-2-(difluoromethoxy)phenyl)-1-(2-(4-(1-cyanocyclo-propylamino)piperidin-1-yl)-2-oxoethyl)-1H-pyrazol-4-yl)pyrazolo[1,5-a]pyrimidine-3-carboxamide] | 0.25 | 0.75 | 0.0103
6 | O=C(Nc1cn(CC(=O)N2CC3CCCNC3C2)nc1-c1cc(Cl)ccc1OC(F)F)c1cnn2cccnc12 (stereo not drawn) [Example 439, N-(3-(5-chloro-2-(difluoromethoxy)phenyl)-1-(2-(octahydropyrrolo[3,4-b]pyridin-6-yl)-2-oxoethyl)-1H-pyrazol-4-yl)pyrazolo[1,5-a]pyrimidine-3-carboxamide] | 0.71 | 0.78 | 0.0353
7 | CN1CCCC2CN(C(=O)Cn3cc(NC(=O)c4cnn5cccnc45)c(-c4cc(Cl)ccc4OC(F)F)n3)CC21 (stereo not drawn) [Example 440, N-(3-(5-chloro-2-(difluoromethoxy)phenyl)-1-(2-(1-methyl-octahydropyrrolo[3,4-b]pyridin-6-yl)-2-oxoethyl)-1H-pyrazol-4-yl)pyrazolo[1,5-a]pyrimidine-3-carboxamide] | 0.46 | 0.54 | 0.0068
8 | O=C(Nc1cn(CC(=O)N2C[C@@H]3CCN[C@@H]3C2)nc1-c1cc(Cl)ccc1OC(F)F)c1cnn2cccnc12 [Example 444, N-(3-(5-chloro-2-(difluoromethoxy)phenyl)-1-(2-((3aS,6aS)-hexahydropyrrolo[3,4-b]pyrrol-5(1H)-yl)-2-oxoethyl)-1H-pyrazol-4-yl)pyrazolo[1,5-a]pyrimidine-3-carboxamide] | 0.76 | 0.89 | 0.054
9 | O=C(Nc1cn(CC(=O)N2CCC(N3CC4CC(C3)O4)CC2)nc1-c1cc(Cl)ccc1OC(F)F)c1cnn2cccnc12 [Example 450, N-(1-(2-(4-(6-oxa-3-aza-bicyclo[3.1.1]heptan-3-yl)piperidin-1-yl)-2-oxoethyl)-3-(5-chloro-2-(difluoromethoxy)phenyl)-1H-pyrazol-4-yl)pyrazolo[1,5-a]pyrimidine-3-carboxamide] | 0.37 | 0.97 | 0.0126
10 | O=C(Nc1cn(Cc2cn(C3CCNCC3)nn2)nc1-c1cc(Cl)ccc1OC(F)F)c1cnn2cccnc12 [Example 452, N-(3-(5-chloro-2-(difluoromethoxy)phenyl)-1-((1-(piperidin-4-yl)-1H-1,2,3-triazol-4-yl)methyl)-1H-pyrazol-4-yl)pyrazolo[1,5-a]pyrimidine-3-carboxamide] | 0.71 | 0.65 | 0.0809

More lines, main results first:

Row | Ki [2] [nM] | Ki [3] [nM] | SMILES | EC50 [1] [µM]
11 | 0.48 | 0.99 | O=C(Nc1cn(CC(=O)N2CCN(C3CCOCC3)CC2)nc1-c1cc(Cl)ccc1OC(F)F)c1cnn2cccnc12 [Example 429, N-(3-(5-chloro-2-(difluoromethoxy)phenyl)-1-(2-oxo-2-(4-(tetrahydro-2H-pyran-4-yl)piperazin-1-yl)ethyl)-1H-pyrazol-4-yl)pyrazolo[1,5-a]pyrimidine-3-carboxamide] | 0.0074
12 | 0.29 | 0.74 | CN(C1CCN(C(=O)Cn2cc(NC(=O)c3cnn4cccnc34)c(-c3cc(Cl)ccc3OC(F)F)n2)CC1)C1(C#N)CC1 [Example 431, N-(3-(5-chloro-2-(difluoromethoxy)phenyl)-1-(2-(4-((1-cyanocyclopropyl)(methyl)amino)piperidin-1-yl)-2-oxoethyl)-1H-pyrazol-4-yl)pyrazolo[1,5-a]pyrimidine-3-carboxamide] | 0.0029
13 | 0.31 | 0.67 | O=C(Nc1cn(CC(=O)N2CCC(N3CCSCC3)CC2)nc1-c1cc(Cl)ccc1OC(F)F)c1cnn2cccnc12 [Example 434, N-(3-(5-chloro-2-(difluoromethoxy)phenyl)-1-(2-oxo-2-(4-thiomorpholinopiperidin-1-yl)ethyl)-1H-pyrazol-4-yl)pyrazolo[1,5-a]pyrimidine-3-carboxamide] | 0.0187
14 | 0.38 | 0.88 | O=C(Nc1cn(CC(=O)N2CCN(C3CCOC3)CC2)nc1-c1cc(Cl)ccc1OC(F)F)c1cnn2cccnc12 (stereo not drawn) [Example 437, N-(3-(5-chloro-2-(difluoromethoxy)phenyl)-1-(2-oxo-2-(4-(tetrahydrofuran-3-yl)piperazin-1-yl)ethyl)-1H-pyrazol-4-yl)pyrazolo[1,5-a]pyrimidine-3-carboxamide] | 0.0126
15 | 0.52 | 1.48 | O=C(Nc1cn(CC(=O)N2CCC(N3CCCOCC3)CC2)nc1-c1cc(Cl)ccc1OC(F)F)c1cnn2cccnc12 [Example 441, N-(1-(2-(4-(1,4-oxazepan-4-yl)piperidin-1-yl)-2-oxoethyl)-3-(5-chloro-2-(difluoromethoxy)phenyl)-1H-pyrazol-4-yl)pyrazolo[1,5-a]pyrimidine-3-carboxamide] | 0.0084
16 | 0.35 | 0.87 | O=C(Nc1cn(CC(=O)N2CCC(N3CCNCC3=O)CC2)nc1-c1cc(Cl)ccc1OC(F)F)c1cnn2cccnc12 [Example 445, N-(3-(5-chloro-2-(difluoromethoxy)phenyl)-1-(2-oxo-2-(4-(2-oxopiperazin-1-yl)piperidin-1-yl)ethyl)-1H-pyrazol-4-yl)pyrazolo[1,5-a]pyrimidine-3-carboxamide] | 0.3
17 | 0.45 | 1.3 | N#CC1CN(C2CCN(C(=O)Cn3cc(NC(=O)c4cnn5cccnc45)c(-c4cc(Cl)ccc4OC(F)F)n3)CC2)C1 [Example 446, N-(3-(5-chloro-2-(difluoromethoxy)phenyl)-1-(2-(4-(3-cyanoazetidin-1-yl)piperidin-1-yl)-2-oxoethyl)-1H-pyrazol-4-yl)pyrazolo[1,5-a]pyrimidine-3-carboxamide] | 0.0121
18 | 0.49 | 1.25 | O=C(Nc1cn(CC(=O)N2CCC(N3C[C@@H]4C[C@H]3CO4)CC2)nc1-c1cc(Cl)ccc1OC(F)F)c1cnn2cccnc12 [Example 447, N-(1-(2-(4-((1S,4S)-5-oxa-2-aza-bicyclo[2.2.1]heptan-2-yl)piperidin-1-yl)-2-oxoethyl)-3-(5-chloro-2-(difluoromethoxy)phenyl)-1H-pyrazol-4-yl)pyrazolo[1,5-a]pyrimidine-3-carboxamide] | 0.0161
19 | 0.36 | 0.88 | CN1CCN(C2CCN(C(=O)Cn3cc(NC(=O)c4cnn5cccnc45)c(-c4cc(Cl)ccc4OC(F)F)n3)CC2)C(=O)C1 [Example 448, N-(3-(5-chloro-2-(difluoromethoxy)phenyl)-1-(2-(4-(4-methyl-2-oxopiperazin-1-yl)piperidin-1-yl)-2-oxoethyl)-1H-pyrazol-4-yl)pyrazolo[1,5-a]pyrimidine-3-carboxamide] | 0.0425
20 | 0.38 | 1.1 | C[C@@H]1COCCN1C1CCN(C(=O)Cn2cc(NC(=O)c3cnn4cccnc34)c(-c3cc(Cl)ccc3OC(F)F)n2)CC1 [Example 449, N-(3-(5-chloro-2-(difluoromethoxy)phenyl)-1-(2-(4-((R)-3-methyl-morpholino)piperidin-1-yl)-2-oxoethyl)-1H-pyrazol-4-yl)pyrazolo[1,5-a]pyrimidine-3-carboxamide] | 0.0136
21 | 0.45 | 1.56 | C[C@H]1COCCN1C1CCN(C(=O)Cn2cc(NC(=O)c3cnn4cccnc34)c(-c3cc(Cl)ccc3OC(F)F)n2)CC1 [Example 451, N-(3-(5-chloro-2-(difluoromethoxy)phenyl)-1-(2-(4-((S)-3-methyl-morpholino)piperidin-1-yl)-2-oxoethyl)-1H-pyrazol-4-yl)pyrazolo[1,5-a]pyrimidine-3-carboxamide] | 0.0201
